Assay results taken from the Deep4Chem optical property database.

Assay: solvent given as SMILES

With `F[B-]1(F)n2c(ccc2N2CCOCC2)C(c2ccccc2)=C2C=CC(N3CCOCC3)=[N+]21` the emission maximum (in CC#N) was 600 nm, the emission maximum (in CCCCCC) was 595 nm and the emission maximum (in CCOC(C)=O) was 597 nm. For the same compound, the emission maximum (in CO) was 594 nm and the emission maximum (in ClCCl) was 598 nm.

Compound `Cc1cccc(C2=Cc3c4ccccc4c4ccccc4[n+]3[B-](F)(F)O2)c1` has an emission maximum (in ClC(Cl)Cl) of 447 nm.

In the case of `CCCCCCc1cc2c(s1)-c1sc(CCCCCC)cc1P(c1ccccc1)(c1ccccc1)=[O+][B-]2(c1c(C)cc(C)cc1C)c1c(C)cc(C)cc1C`, the emission maximum (in C1CCOC1) is reported as 536 nm.

In the case of `COC(=O)c1cc(=O)n(C)c2cc(-c3cccc(OC)c3)sc12`, the emission maximum (in CC#N) is reported as 463 nm and the emission maximum (in ClCCl) is reported as 464 nm.

`CCOC(=O)CN1C(=O)C2=C(c3ccc(N4CCCCC4)cc3)N(CC(=O)OCC)C(=O)C2=C1c1ccccc1` gave an emission maximum (in CC#N) of 587 nm, an emission maximum (in CS(C)=O) of 601 nm and an emission maximum (in Cc1ccccc1) of 563 nm.

With `CC1=CC(C)=[N+]2C1=C(c1c3ccccc3cc3ccccc13)c1c(C)cc(C)n1[B-]2(F)F` the emission maximum (in CC#N) was 512 nm, the emission maximum (in CCCCCC) was 515 nm and the emission maximum (in CCO) was 513 nm. It also gave an emission maximum (in CN(C)C=O) of 518 nm, an emission maximum (in Cc1ccccc1) of 521 nm and an emission maximum (in ClCCl) of 517 nm.

`CCOc1ccc(/C=C/c2nc(N3CCOCC3)c3c([n+]2[O-])CCCC3)cc1` gave an emission maximum (in ClCCl) of 515 nm.

Work on `C(#Cc1cccc2cc(-c3ccccc3)c3cc(-c4cc[b-]5c(c4)c(-c4ccccc4)cc4cccc(C#Cc6ccccc6)[n+]54)cc[b-]3[n+]12)c1ccccc1` yielded an emission maximum (in C1CCCCC1) of 630 nm.

With `CCc1c(C)[nH]c(C2=[N+]3C(=Cc4c(C)c(CC)c(C)n4[B-]3(F)F)c3ccccc32)c1C` the emission maximum (in C1CCOC1) was 644 nm, the emission maximum (in CC#N) was 643 nm and the emission maximum (in CCCCCC) was 641 nm. For the same compound, the emission maximum (in CO) was 642 nm, the emission maximum (in Cc1ccccc1) was 651 nm and the emission maximum (in ClCCl) was 650 nm.

`CC(C)(C)c1ccc2c(c1)c1cc(C(C)(C)C)ccc1n2-c1cc(-n2c3ccc(C(C)(C)C)cc3c3cc(C(C)(C)C)ccc32)c(-n2c3ccc(C(C)(C)C)cc3c3cc(C(C)(C)C)ccc32)c(C#N)c1-n1c2ccc(C(C)(C)C)cc2c2cc(C(C)(C)C)ccc21` gave an emission maximum (in CCCCCC) of 449.25 nm, an emission maximum (in CCO) of 484.15 nm and an emission maximum (in Cc1ccccc1) of 456 nm. The emission maximum (in ClCCl) was 472.48 nm.

In the case of `CCCCCCCCCCCCN1C(=O)c2c(c3ccc4cc(-c5ccc(-c6ccccc6)cc5)c(OC)cc4c3c3c2ccc2cc(-c4ccc(-c5ccccc5)cc4)c(OC)cc23)C1=O`, the emission maximum (in ClCCl) is reported as 527 nm.

For `c1ccc(N(c2ccccc2)c2ccc(-c3ncnc4ccccc34)cc2)cc1`, the emission maximum (in C1CCCCC1) was 445 nm, the emission maximum (in C1CCOC1) was 508 nm and the emission maximum (in CC#N) was 559 nm. The emission maximum (in CS(C)=O) was 563 nm and the emission maximum (in ClCCl) was 528 nm.

With `Cc1cc(C)c(C2=C3C=CC(c4ccc5c(ccc6ccccc65)c4)=[N+]3[B-](F)(F)n3c2ccc3-c2ccc3c(ccc4ccccc43)c2)c(C)c1` the emission maximum (in ClC(Cl)Cl) was 624 nm.

For `O=C([O-])c1ccc(C2=c3cc4c5c(c3Oc3c2cc2c6c3CCCN6CCC2)CCC[N+]=5CCC4)c(C(=O)[O-])c1`, the emission maximum (in CCO) was 601 nm and the emission maximum (in O) was 603 nm.

Compound `COc1cc2c(cc1-c1cccs1)Cc1c3c(c4c(c1-2)-c1cc(OC)c(-c2cccs2)cc1C4)C(=O)N(CCC(C)C)C3=O` has an emission maximum (in C1CCOC1) of 505 nm.

Work on `c1ccc(-c2nc(-c3ccccn3)sc2N(c2ccccc2)c2ccccc2)cc1` yielded an emission maximum (in ClC(Cl)Cl) of 482 nm.

`C[n+]1ccc(-c2cc[n+](C)cc2)cc1` gave an emission maximum (in CC#N) of 353 nm.

Compound `C(#Cc1ccccc1)C(C#Cc1ccccc1)=Cc1ccc2cc(C=C(C#Cc3ccccc3)C#Cc3ccccc3)ccc2c1` has an emission maximum (in ClC(Cl)Cl) of 473 nm.

For `Cc1cc2ccccc2c2c1c1ccccc1n2-c1ccc(C#N)cc1`, the emission maximum (in ClCCl) was 470 nm.

Compound `NS(=O)(=O)c1ccc(N2N=C(c3ccc(O)cc3)CC2c2ccc(Br)cc2)cc1` (stereo unspecified) has an emission maximum (in C1CCOC1) of 417 nm, an emission maximum (in C1COCCO1) of 417 nm and an emission maximum (in CC#N) of 417 nm. The emission maximum (in CC(C)O) was 423 nm, the emission maximum (in CCO) was 428 nm and the emission maximum (in CCOC(C)=O) was 415 nm. It also gave an emission maximum (in CN(C)C=O) of 422 nm, an emission maximum (in CO) of 432 nm and an emission maximum (in CS(C)=O) of 424 nm. The emission maximum (in O) was 449 nm.

For `CC1=C(/C=C/c2ccccc2)C(C)=[N+]2C1=C(c1ccccc1)c1c(C)c(/C=C/c3ccccc3)c(C)n1[B-]2(F)F`, the emission maximum (in ClC(Cl)Cl) was 633 nm.

Work on `CN1C(=CC2=C([O-])C(=CC3=[N+](C)c4ccc(Cl)cc4C3(C)C)C2=O)C(C)(C)c2cc(Cl)ccc21` yielded an emission maximum (in CO) of 653 nm and an emission maximum (in ClC(Cl)Cl) of 654 nm.

For `Cc1cc(C)c(C2=C3C=C(/C=C/C(=O)OC(C)(C)C)C=[N+]3[B-](F)(F)n3c2ccc3N2CCCC2)c(C)c1`, the emission maximum (in ClCCl) was 551 nm.

For `COc1ccc(C(=Cc2ccc(C#N)cc2)c2ccc(OC)cc2)cc1`, the emission maximum (in C1CCOC1) was 395 nm.

`O=C(N/N=C/c1ccccc1O)c1ccccc1` showed an emission maximum (in C1CCOC1) of 306 nm, an emission maximum (in CC#N) of 373 nm and an emission maximum (in CC(C)=O) of 426 nm. For the same compound, the emission maximum (in CCO) was 429 nm, the emission maximum (in CN(C)C=O) was 458 nm and the emission maximum (in CS(C)=O) was 552 nm. For the same compound, the emission maximum (in ClCCl) was 392 nm.

Compound `O=Cc1ccc(C=C(c2ccccc2)c2ccccc2)cc1` has an emission maximum (in C1CCOC1) of 383 nm.

`O=c1oc2cc3ccccc3cc2nc1-c1ccccc1` gave an emission maximum (in CC#N) of 538 nm, an emission maximum (in CCCCCC) of 500 nm and an emission maximum (in CO) of 548 nm. The emission maximum (in c1ccccc1) was 514 nm.

For `Cc1c2ccncc2c(C)c2c1[nH]c1ccccc12`, the emission maximum (in C1CCCCC1) was 392 nm, the emission maximum (in C1CCOC1) was 413 nm and the emission maximum (in C1COCCO1) was 410 nm. The emission maximum (in CC#N) was 420 nm, the emission maximum (in CC(C)(C)O) was 420 nm and the emission maximum (in CC(C)O) was 424 nm. For the same compound, the emission maximum (in CCC(C)(C)O) was 419 nm, the emission maximum (in CCCCCC) was 390 nm and the emission maximum (in CCCCO) was 427 nm. For the same compound, the emission maximum (in CCO) was 429 nm, the emission maximum (in CCOC(C)=O) was 410 nm and the emission maximum (in CCOCC) was 405 nm. For the same compound, the emission maximum (in CN(C)C=O) was 425 nm, the emission maximum (in CO) was 434 nm and the emission maximum (in CS(C)=O) was 428 nm. For the same compound, the emission maximum (in Cc1ccccc1) was 403 nm.

Compound `CC(C)(C)c1ccc(-n2c(-c3ccc(-c4ccc(N(c5ccccc5)c5ccccc5)cc4)cc3)nc3c4ccccc4c4ccccc4c32)cc1` has an emission maximum (in ClCCl) of 442 nm.

`CN(C)c1ccc(/C=C/c2cc[n+](CCCCC[n+]3ccc(/C=C/c4ccc(N(C)C)cc4)cc3)cc2)cc1` showed an emission maximum (in CC1COC(=O)O1) of 603 nm, an emission maximum (in CC#N) of 605 nm and an emission maximum (in CC(C)=O) of 604 nm. It also gave an emission maximum (in CC(C)O) of 593 nm, an emission maximum (in CCO) of 598 nm and an emission maximum (in CN(C)C=O) of 607 nm. It also gave an emission maximum (in CO) of 600 nm, an emission maximum (in CS(C)=O) of 610 nm and an emission maximum (in ClC(Cl)Cl) of 574 nm. The emission maximum (in O) was 597 nm and the emission maximum (in c1ccncc1) was 596 nm.

`CCCCN1C(=O)C2=C(c3ccc(Br)cc3)NC(=O)C2=C1c1ccc(Br)cc1` showed an emission maximum (in ClCCl) of 531 nm.

Work on `CC[B-]1(CC)c2cccc3cc4ccccc4c(c23)-c2cccc(C)[n+]21` yielded an emission maximum (in ClCCl) of 538 nm.

Compound `CN1c2cc3nc4cc(F)c(F)cc4nc3cc2N(C)C1(C)C` has an emission maximum (in CCO) of 488 nm.

Compound `Cc1ccc(N(c2ccc(C)cc2)c2ccc3c4cccc5c(N(c6ccc(C)cc6)c6ccc(C)cc6)ccc(c6cccc2c63)c54)cc1` has an emission maximum (in C1CCCCC1) of 546 nm, an emission maximum (in C1CCOC1) of 551 nm and an emission maximum (in CC#N) of 574 nm. It also gave an emission maximum (in Cc1ccccc1) of 548 nm and an emission maximum (in ClCCl) of 568 nm.

With `Cc1cc(C)c(B(c2cc(-c3ccccc3)sc2-c2sc(-c3ccccc3)cc2P(=O)(c2ccccc2)c2ccccc2)c2c(C)cc(C)cc2C)c(C)c1` the emission maximum (in CO) was 558 nm.

For `COc1cc(C2=CC3=C(c4c(C)cc(C)cc4C)c4cc(-c5cc(OC)c(OC)c(OC)c5)c(-c5cc(OC)c(OC)c(OC)c5)n4[B-](F)(F)[N+]3=C2c2cc(OC)c(OC)c(OC)c2)cc(OC)c1OC`, the emission maximum (in C1CCCCC1) was 670 nm, the emission maximum (in C1CCOC1) was 662 nm and the emission maximum (in CC#N) was 628 nm. For the same compound, the emission maximum (in Cc1ccccc1) was 677 nm and the emission maximum (in ClCCl) was 651 nm.

Work on `CCOC(=O)CN(CC(=O)OCC)c1ccc(-c2cc(-c3ccccn3)nc(-c3ccccn3)c2)cc1` yielded an emission maximum (in CC#N) of 452 nm, an emission maximum (in CCOC(C)=O) of 419 nm and an emission maximum (in CN(C)C=O) of 458 nm. For the same compound, the emission maximum (in CS(C)=O) was 466 nm and the emission maximum (in c1ccccc1) was 400 nm.

`O=C1/C(=C\c2ccc(N(c3ccccc3)c3ccccc3)cc2)S(=O)(=O)c2ccccc21` gave an emission maximum (in C1CCOC1) of 630 nm, an emission maximum (in C1COCCO1) of 600 nm and an emission maximum (in CC#N) of 518 nm. For the same compound, the emission maximum (in CC(C)=O) was 540 nm, the emission maximum (in CCOC(C)=O) was 617 nm and the emission maximum (in CN(C)C=O) was 520 nm. The emission maximum (in CO) was 597 nm, the emission maximum (in CS(C)=O) was 553 nm and the emission maximum (in Cc1ccccc1) was 587 nm. For the same compound, the emission maximum (in ClC(Cl)Cl) was 626 nm and the emission maximum (in ClCCl) was 631 nm.

`O=C(c1ccncc1)c1ccc(-n2c3ccccc3c3ccccc32)cc1` gave an emission maximum (in Cc1ccccc1) of 440 nm and an emission maximum (in c1cc(-c2cccc(-n3c4ccccc4c4ccccc43)c2)cc(-n2c3ccccc3c3ccccc32)c1) of 457.34 nm.

With `C(S/C=C/c1ccc(-c2ccc(/C=C/SC=C3CCCCCCC3)cc2)cc1)=C1CCCCCCC1` the emission maximum (in ClCCl) was 437 nm.

Compound `CCN(CC)c1ccc2cc(C#N)/c(=N\C(C)=O)oc2c1` has an emission maximum (in CCO) of 462 nm and an emission maximum (in ClCCl) of 460 nm.

Compound `CCCCCCNC(=O)c1sc(-c2ccc(-c3cc(-c4ccc(C(C)(C)C)cc4)c(C(=O)NCCCCCC)s3)s2)cc1-c1ccc(C(C)(C)C)cc1` has an emission maximum (in ClCCl) of 448 nm.

For `C(#Cc1ccc(-n2c3ccccc3c3ccccc32)cc1)c1ccccc1`, the emission maximum (in CC#N) was 443 nm, the emission maximum (in CO) was 401 nm and the emission maximum (in Cc1ccccc1) was 364 nm. For the same compound, the emission maximum (in ClC(Cl)Cl) was 379 nm and the emission maximum (in ClCCl) was 390 nm.

Compound `CCOC(=O)c1c(-c2cc3c(ccc4ccccc43)oc2=O)nn(-c2cccc(Cl)c2)c1C(=O)OCC` has an emission maximum (in ClCCl) of 442 nm.

Compound `COc1ccc2c(-c3nc(-c4cccc(C)c4)no3)cc(=O)oc2c1` has an emission maximum (in CCO) of 464 nm and an emission maximum (in ClC(Cl)Cl) of 450 nm.

`CC1(C)C(/C=C/C=C/C=C/C=C2/N(c3ccc(S(=O)(=O)[O-])cc3)c3ccc(S(=O)(=O)[O-])cc3C2(C)C)=[N+](c2ccc(S(=O)(=O)[O-])cc2)c2ccc(S(=O)(=O)[O-])cc21` gave an emission maximum (in CO) of 782 nm and an emission maximum (in O) of 779 nm.

With `FC(F)(F)c1ccccc1B1c2ccccc2Nc2ccccc21` the emission maximum (in ClCCl) was 401 nm.
